The numbers were not newly measured in patent publication US9079157B2, “Protein removal agent” (Thermo Fisher Scientific Baltics, UAB, priority 2012, dated 2015), which cites them from elsewhere.

In the series the test system is enzymes. The conditions noted are these: referenced in the BRENDA database.

Structures are written as SMILES.

For `O=C(O)CCCCC(=O)O` [adipic, adipic acid], the “Number of inhibited enzymes” value was 10.
Take `O=C(O)CC(O)(CC(=O)O)C(=O)O` [citric acid]: the “Number of inhibited enzymes” value is reported as 203.
For `O=C(O)CCCC(=O)O` [glutaric, glutaric acid], the “Number of inhibited enzymes” value is recorded as 25.
In the case of `O=C(O)CC(=O)O` [malonic, malonic acid], the “Number of inhibited enzymes” value is on record as 63.
With `O=C(O)C(=O)O` [oxalic, oxalic acid], the “Number of inhibited enzymes” value is reported as 119.
Turning to `O=C(O)CCCCCC(=O)O` [pimelic, pimelic acid], the “Number of inhibited enzymes” value is 3.
In the case of `O=C(O)CCCCCCC(=O)O` [suberic, suberic acid], the “Number of inhibited enzymes” value is 0.
Turning to `O=C(O)CCC(=O)O` [succinic, succinic acid], the “Number of inhibited enzymes” value is 115.
